Results on 17 molecules are retold here after patent publication US10562891B2, “Quinazolinones as PARP14 inhibitors” (Ribon Therapeutics Inc., priority 2017, dated 2020).

Structures can show the parent of a compound that is named as a salt.

The experiment has as its target catalytic domain of human PARP14 (Homo sapiens (Human), UniProt Q460N5). The experiment in a line: Enzymatic assay for inhibition of PARP14 (DELFIA, auto-modification with biotin-NAD). Format: biochemical. Conditions: auto-modification of PARP14 by biotin-NAD, 50 nM PARP14, 3 μM biotin-NAD. As to the method:
An N-terminal His-TEV fusion tag was used to purify the protein from cell lysates. The His-TEV tag was left on the protein for use in the enzymatic assay.
Enzymatic inhibition of PARP14 was measured using a dissociation-enhanced lanthanide fluorescence immunoassay (DELFIA) monitoring the auto-modification of PARP14 by biotinylated nicotinamide adenine dinucleotide (biotin-NAD). 1 μL of a dose response curve of each test compound was spotted in 384-well nickel-coated white microplates (Thermo) using a Mosquito (TTP Labtech). Reactions were performed in a 50 μL volume by adding 40 μL of PARP14 in assay buffer (20 mM HEPES pH==8, 100 mM NaCl, 0.1% bovine serum albumin, 2 mM DTT and 0.002%0 Tween20), incubating with test compound at 25° C. for 30 min, then adding 10 μL of biotin-NAD (Biolog). The final concentrations of PARP14 and biotin-NAD are 50 nM and 3 μM, respectively. Reactions proceeded at 25° C. for 3 h, then were quenched with 5 μL of 10 mM unmodified nicotinamide adenine dinucleotide (Sigma-Aldrich). The quenched reactions were washed 3 times with 100 μL of TBST wash buffer (50 mM Tris-HCl, 150 mM NaCl and 0.1% Tween20). Next, to the washed and dried plate was added 25 μL of DELFIA Europium-N1 streptavidin (Perkin Elmer) diluted in DELFIA assay buffer (Perkin Elmer). After a 30 min incubation at 25° C., the plate was washed 5 times with TBST wash buffer. Finally, 25 μL of DELFIA enhancement solution was added. After a 5 min incubation the plate was read on an Envision platereader equipped with a LANCE/DELFIA top mirror (Perkin Elmer) using excitation of 340 nm and emission of 615 nm to measure the amount of Europium present in each well, informing on the amount of biotin-NAD that was transferred in the automodification reaction.
[formula] where ex615cmpd is the emission from the compound treated well, ex615min is the emission from the rucaparib treated positive control well and ex615max is the emission from the DMSO treated negative control well.
The % inhibition values were plotted as a function of compound concentration and the following 4-parameter fit was applied to derive the IC50 values:
[formula] where top and bottom are normally allowed to float, but may be fixed at 100 or 0 respectively in a 3-parameter fit. The Hill Coefficient is normally allowed to float but may also be fixed at 1 in a 3-parameter fit. Y is the % inhibition and X is the compound concentration.

Chain of catalytic domain of human PARP14 (Q460N5 1611-1801): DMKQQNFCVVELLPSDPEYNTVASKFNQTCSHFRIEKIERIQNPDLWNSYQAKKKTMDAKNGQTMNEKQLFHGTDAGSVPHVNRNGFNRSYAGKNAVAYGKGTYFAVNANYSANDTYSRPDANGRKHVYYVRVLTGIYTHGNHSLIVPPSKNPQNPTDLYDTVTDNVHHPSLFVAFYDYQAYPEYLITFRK

In general, IC50 refers to the concentration that inhibits the measured activity by half. For the molecule `COc1ccc2c(=O)[nH]c(CSC3CCOCC3)nc2c1` [Example 31, 7-Methoxy-2-(((tetrahydro-2H-pyran-4-yl)thio)methyl)quinazolin-4(3H)-one], the IC50 was 1 to 10 µM.
The figure for `Cc1cccc2c(=O)[nH]c(CS[C@H]3CC[C@@H](CN(C)C)CC3)nc12` [Example 68, 2-(((cis-4-((Dimethylamino)methyl)cyclohexyl)thio)methyl)-8-methyl quinazolin-4(3H)-one Trifluoroacetate] is 1 to 10 µM.
The molecule `CC(=O)N1CCC(COc2cc(F)c3c(=O)[nH]c(CSC4CCOCC4)nc3c2)C1` (centres unmarked) [Example 367] had an IC50 of less than 1 µM.
Turning to `CO[C@H]1C[C@@H](Nc2cc3nc(CS[C@H]4CC[C@H](NC(C)=O)CC4)[nH]c(=O)c3c(F)c2F)C1` [Example 389], the IC50 is less than 1 µM.
As to `Cc1cccc2c(=O)[nH]c(CS[C@H]3CC[C@H](N)CC3)nc12` [Example 49, 2-(((trans-4-Aminocyclohexyl)thio)methyl)-8-methylquinazolin-4(3H)-one Hydrochloride], the concentration for half-maximal inhibition (IC50) was in the range of 1 to 10 µM.
Consider `CN1CCN(c2ccc3c(=O)[nH]c(CSC4CCOCC4)nc3c2)CC1` [Example 112, 7-(4-Methylpiperazin-1-yl)-2-(((tetrahydro-2H-pyran-4-yl)thio)methyl)quinazolin-4(3H)-one], for which the IC50 was in the range of 1 to 10 µM.
In the case of `O=c1[nH]c(CSC2CCOCC2)nc2cc(NC3CCCC3)c(F)c(F)c12` [Example 294, 7-(Cyclopentylamino)-5,6-difluoro-2-(((tetrahydro-2H-pyran-4-yl)thio)methyl)quinazolin-4(3H)-one] it was less than 1 µM.
The figure for `O=c1[nH]c(CSC2CCCCC2)nc2cc(OCC3CCC3)cc(F)c12` [Example 309, 7-(Cyclobutylmethoxy)-2-((cyclohexylthio)methyl)-5-fluoroquinazolin-4(3H)-one] is less than 1 µM; for `O=c1[nH]c(CSC2CCOCC2)nc2cc(OCC3CC3(F)F)cc(F)c12` (centres unmarked) [Example 315, 7-((2,2-Difluorocyclopropyl)methoxy)-5-fluoro-2-(((tetrahydro-2H-pyran-4-yl)thio)methyl)quinazolin-4(3H)-one] it is less than 1 µM; for `O=c1[nH]c(CSC2CCOCC2)nc2cc(OCC3CCN(C4COC4)CC3)cc(F)c12` [Example 301, 5-Fluoro-7-((1-(oxetan-3-yl)piperidin-4-yl)methoxy)-2-(((tetrahydro-2H-pyran-4-yl)thio)methyl)quinazolin-4(3H)-one] it is less than 1 µM.
The figure for `O=c1[nH]c(CSC2CCOCC2)nc2cc(OCC3CCOC3)cc(F)c12` (centres unmarked) [Example 238, 5-Fluoro-2-(((tetrahydro-2H-pyran-4-yl)thio)methyl)-7-((tetrahydrofuran-3-yl)methoxy)quinazolin-4(3H)-one] is less than 1 µM; for `CC(=O)N[C@H]1CC[C@H](SCc2nc3cc(NC4CCC4)c(F)c(F)c3c(=O)[nH]2)CC1` [Example 392] it is less than 1 µM; for `COc1cccc2c(=O)[nH]c(CSC3CCOCC3)nc12` [Example 6] it is 1 to 10 µM.
For the molecule `O=c1[nH]c(CS[C@H]2CC[C@H](O)CC2)nc2cc(Nc3ccccc3)ccc12` [Example 98, 2-(((trans-4-Hydroxycyclohexyl)thio)methyl)-7-(phenylamino)quinazolin-4(3H)-one], the IC50 is less than 1 µM.
In the case of `Cc1cccc2c(=O)[nH]c(CS[C@H]3CC[C@H](CN)CC3)nc12` [Example 66, 2-(((trans-4-(Aminomethyl)cyclohexyl)thio)methyl)-8-methylquinazolin-4(3H)-one Trifluoroacetate] it was less than 1 µM; in that of `O=c1[nH]c(CS[C@H]2CNC[C@H]2F)nc2cc(NC3CCCC3)cc(F)c12` (relative stereo) [Example 223, 7-(Cyclopentylamino)-5-fluoro-2-(((cis-4-fluoropyrrolidin-3-yl)thio)methyl)quinazolin-4(3H)-one Trifluoroacetate], less than 1 µM.
As to `COc1ccc2nc(CSC3CCOCC3)[nH]c(=O)c2c1` [Example 4], the IC50 is more than 10 µM.
